# Results published in patent publication US20240408216A1, “PROTEIN INHIBITOR OR DEGRADING AGENT, PHARMACEUTICAL COMPOSITION CONTAINING SAME AND PHARMACEUTICAL USE” (JING MEDICINE TECHNOLOGY (SHANGHAI) LTD., priority 2021, published 2024).
# pIC50: −log10 of the molar value.
# Experiments:
# BaF3 (EGFR WT) = experiment: Cell proliferation IC50 assay (Cell Titer GLO), BaF3 WT cells; assay type: cell-based; conditions: Mus musculus, Ba/F3 EGFR, 72 h
# Outline: (§1)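 Cells plated at 2000-4000 per well, next day given serially diluted compound, then grown 72 h at 37 °C, 5% CO2. Viability by CellTiter-Glo luminescence versus DMSO control; IC50 from growth-inhibition curves.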
# [1] = tested on: BaF3 (EGFR Del19/T790M/C797S); experiment: Cell proliferation IC50 assay (Cell Titer GLO), BaF3 DTC cells; assay type: cell-based; conditions: Mus musculus, Ba/F3 EGFR-Del19/T790M/C797S, Table 5, 72 h
# Method: (§2) IC50 of compounds in the present invention was determined by Cell Titer GLO reagent from Promega. The procedures are as follows:
# (§3) Tumor cells were cultured in specified medium in an incubator at 37° C. and 5% CO2. The cells were passaged periodically. Cells at the logarithmic growth phase were collected for plating at a density of 2000-4000 cells/well. The next day, the compounds of the present invention were serially diluted and added to the cells, with DMSO being the negative control and the culture media without cells being the blank control. The plate was incubated in the incubator for 72 h. The cell viability assay was performed by adding the detection reagents to the cell culture media according to Cell Titer GLO reagent instructions and detecting luminescent signals on an EnVision microplate reader (PerkinElmer).
# (§4) Inhibition of cell growth by the compounds of the present invention was plotted by Prism Graphpad software for statistically calculating the IC50 of the compound of the present invention.
# BaF3 patent = experiment: Cell proliferation IC50 assay (Cell Titer GLO), BaF3 parental cells; assay type: cell-based; conditions: Mus musculus
# Method: as §2, §3, §4
# A431 = experiment: Cell proliferation IC50 assay (Cell Titer GLO), A431 cells; assay type: cell-based; conditions: Homo sapiens, A-431; Table 5; A431, 72 h; read-out: A431 IC50
# Outline: as §1
# [2] = tested on: BaF3 (EGFR L858R/T790M/C797S); experiment: Cell proliferation IC50 assay (Cell Titer GLO), BaF3 LTC cells; assay type: cell-based; conditions: Mus musculus, Ba/F3 EGFR
# Outline: as §1
# BaF3 (EGFR Del19/C797S) = target: T1, BaF3 (EGFR Del19/C797S) (Homo sapiens, UniProt P00533, C797S, cells depend on it, form not given); experiment: Cell proliferation IC50 assay (Cell Titer GLO), BaF3 DC cells; assay type: cell-based, mouse; conditions: Table 6, 72 h
# T1 construct: BaF3 (EGFR Del19/C797S)|DC|RPMI1640 + 10% FBS
# Outline: as §1
# T1 sequence (P00533 with tags, fused parts or gaps DEL746-750/C797S, form open): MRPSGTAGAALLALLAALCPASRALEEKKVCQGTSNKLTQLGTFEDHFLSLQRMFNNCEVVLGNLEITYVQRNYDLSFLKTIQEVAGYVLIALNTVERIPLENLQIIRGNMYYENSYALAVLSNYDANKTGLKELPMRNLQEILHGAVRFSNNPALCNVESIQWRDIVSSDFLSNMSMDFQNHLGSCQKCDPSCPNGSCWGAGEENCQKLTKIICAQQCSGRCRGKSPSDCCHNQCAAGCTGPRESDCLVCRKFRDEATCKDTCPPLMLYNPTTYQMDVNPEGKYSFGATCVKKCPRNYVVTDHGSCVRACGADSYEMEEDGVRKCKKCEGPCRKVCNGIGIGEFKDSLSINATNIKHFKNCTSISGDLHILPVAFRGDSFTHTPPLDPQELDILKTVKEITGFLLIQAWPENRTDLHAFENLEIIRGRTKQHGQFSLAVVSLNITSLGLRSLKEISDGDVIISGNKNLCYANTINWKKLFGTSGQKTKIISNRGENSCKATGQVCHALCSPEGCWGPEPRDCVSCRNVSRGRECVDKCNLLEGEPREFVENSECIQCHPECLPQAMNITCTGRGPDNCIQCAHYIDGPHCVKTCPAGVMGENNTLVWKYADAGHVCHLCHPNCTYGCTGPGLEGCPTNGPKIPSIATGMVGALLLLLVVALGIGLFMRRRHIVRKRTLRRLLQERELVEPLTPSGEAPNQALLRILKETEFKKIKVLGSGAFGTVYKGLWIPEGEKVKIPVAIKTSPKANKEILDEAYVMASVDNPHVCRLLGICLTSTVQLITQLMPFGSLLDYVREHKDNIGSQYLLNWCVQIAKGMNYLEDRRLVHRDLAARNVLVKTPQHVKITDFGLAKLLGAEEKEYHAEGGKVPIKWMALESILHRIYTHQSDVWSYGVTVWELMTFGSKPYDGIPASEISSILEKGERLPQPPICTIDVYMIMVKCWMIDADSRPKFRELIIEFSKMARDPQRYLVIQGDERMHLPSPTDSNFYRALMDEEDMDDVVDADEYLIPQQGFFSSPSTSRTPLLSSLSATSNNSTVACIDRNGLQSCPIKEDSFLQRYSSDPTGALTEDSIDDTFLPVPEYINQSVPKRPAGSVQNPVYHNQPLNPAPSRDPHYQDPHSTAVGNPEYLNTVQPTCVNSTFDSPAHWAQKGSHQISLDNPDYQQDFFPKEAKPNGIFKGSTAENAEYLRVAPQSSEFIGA
Structure (SMILES),"pIC50 (BaF3 (EGFR WT); Table 5, 10 ng/ml EGF)",pIC50 [1],pIC50 (A431),"pIC50 ([2]; Table 5, 72 h)","pIC50 (BaF3 (EGFR WT); Table 6, 10 ng/ml EGF)",pIC50 (BaF3 (EGFR Del19/C797S)),"pIC50 ([2]; Table 6, 72 h)","pIC50 (BaF3 patent; Table 5, 10 ng/ml mIL3, 72 h)","pIC50 (BaF3 patent; Table 6, 10 ng/ml mIL3, 72 h)"
"COc1cc(N2CCC3(CCN(CCCC#Cc4cccc5c4CN(C4CCC(=O)NC4=O)C5=O)CC3)CC2)ccc1Nc1ncc(Cl)c(Nc2ccccc2P(C)(C)=O)n1 (stereo not shown) [Example C-1, reference compound]",6.42,7.55,5.55,6.70,–,–,–,6.42,–
"COc1cc(N2CCC(N3CCN(CC#Cc4cccc5c4CN(C4CCC(=O)NC4=O)C5=O)CC3)CC2)ccc1Nc1ncc(Cl)c(Nc2ccccc2P(C)(C)=O)n1 (stereo not shown) [Example C-3, reference compound]",6.23,7.36,5.92,6.89,–,–,–,6.32,–
"COc1cc(N2CCC(N3CCN(CCCc4cccc5c4CN(C4CCC(=O)NC4=O)C5=O)CC3)CC2)ccc1Nc1ncc(Cl)c(Nc2ccccc2P(C)(C)=O)n1 (stereo not shown) [Example C-4, reference compound]",–,7.38,–,7.15,–,–,–,6.85,–
"COc1cc(N2CCC(N3CCN(CCCCCc4ccc5c(c4)CN(C4CCC(=O)NC4=O)C5=O)CC3)CC2)ccc1Nc1ncc(Cl)c(Nc2ccccc2P(C)(C)=O)n1 (stereo not shown) [Example C-5, reference compound]",5.79,7.65,5.91,6.99,–,–,–,6.24,–
"COc1cc(N2CCC(N3CCC4(CCC(Oc5cccc6c5CN(C5CCC(=O)NC5=O)C6=O)CC4)C3)CC2)ccc1Nc1ncc(Cl)c(Nc2ccccc2P(C)(C)=O)n1 (stereo not shown) [Example C-6, reference compound]",7.10,8.11,6.47,7.47,–,–,–,7.03,–

# Now from value to compound, other results behind:
"pIC50 (BaF3 (EGFR WT); Table 5, 10 ng/ml EGF)",pIC50 [1],pIC50 (A431),"pIC50 ([2]; Table 5, 72 h)","pIC50 (BaF3 (EGFR WT); Table 6, 10 ng/ml EGF)",pIC50 (BaF3 (EGFR Del19/C797S)),"pIC50 ([2]; Table 6, 72 h)",Structure (SMILES),"pIC50 (BaF3 patent; Table 5, 10 ng/ml mIL3, 72 h)","pIC50 (BaF3 patent; Table 6, 10 ng/ml mIL3, 72 h)"
6.54,7.84,–,7.33,–,–,–,COc1cc(N2CCC(N3CCN(CCC#Cc4cccc5c4CN(C4CCC(=O)NC4=O)C5=O)CC3)CC2)c(C)cc1Nc1ncc(Cl)c(Nc2ccccc2P(C)(C)=O)n1 (stereo not shown) [Example E3],6.28,–
–,–,–,–,6.87,7.83,7.37,COc1cc(N2CCC(N3CCN(CCC#Cc4cccc5c4CN(C4CCC(=O)NC4=O)C5=O)CC3)CC2)c(C)cc1Nc1ncc(Br)c(Nc2ccccc2P(C)(C)=O)n1 (stereo not shown) [Example E7],–,6.57
7.55,8.25,6.41,7.95,–,–,–,CCc1cc(Nc2ncc(Cl)c(Nc3ccccc3P(C)(C)=O)n2)ccc1N1CCC(N2CCN(CCC#Cc3cccc4c3CN(C3CCC(=O)NC3=O)C4=O)CC2)CC1 (stereo not shown) [Example E9],7.68,–
7.00,7.81,5.92,7.55,–,–,–,COc1cc(N2CCC(N3CCN(CCC#Cc4cccc5c4CN(C4CCC(=O)NC4=O)C5=O)CC3)CC2)c(Cl)cc1Nc1ncc(Cl)c(Nc2ccccc2P(C)(C)=O)n1 (stereo not shown) [Example E10],7.26,–
6.63,7.77,< 5.40,7.21,–,–,–,COc1cc(N2CCC3(CCN(CCCC#Cc4cccc5c4CN(C4CCC(=O)NC4=O)C5=O)CC3)CC2)c(Cl)cc1Nc1ncc(Cl)c(Nc2ccccc2P(C)(C)=O)n1 (stereo not shown) [Example E11],6.83,–
7.16,8.11,6.42,7.26,–,–,–,CN(CCCC#Cc1cccc2c1CN(C1CCC(=O)NC1=O)C2=O)C1CC2(CCN(c3ccc(Nc4ncc(Cl)c(Nc5ccccc5P(C)(C)=O)n4)cc3Cl)CC2)C1 (stereo not shown) [Example E14],7.07,–
< 5.40,7.25,< 5.40,6.46,–,–,–,CCc1cc(Nc2ncc(Cl)c(Nc3ccccc3P(C)(C)=O)n2)c(OC)cc1N1CCC2(CCN(CCCC#Cc3ccc4c(c3)CN(C3CCC(=O)NC3=O)C4=O)CC2)CC1 (stereo not shown) [Example E16],< 5.40,–
7.60,8.43,6.55,7.81,–,–,–,CP(C)(=O)c1ccccc1Nc1nc(Nc2ccc(N3CCC(N4CCN(CCC#Cc5cccc6c5CN(C5CCC(=O)NC5=O)C6=O)CC4)CC3)c(Cl)c2)ncc1Cl (stereo not shown) [Example E17],7.63,–
